Experimental data reported in patent US8247211B2, “Glycopeptide antibiotics” (American Cyanamid Company, priority 2001, dated 2012).
In brackets after ≈: the same amount, converted by molar mass.

Tests used:
Experiment in all cases: In vitro antibacterial evaluation: minimum inhibitory concentration (MIC), broth dilution method
Format in all cases: cell-based
[1] = system: Escherichia coli; details: 18 hours at 35° C.
How it was run: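 Values are minimum inhibitory concentrations, meaning the smallest antibiotic concentration that stops growth of the organism. They come from broth dilution in Muller-Hinton II […] per NCCLS guidance (M7-A2), using 5×10^5 CFU/mL and concentrations from 64 to 0.06 μg/mL.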

[2] = system: Enterococcus sp.; details: 18 hours at 35° C.
How it was run: (§1)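 An MIC is reported for each organism as the least concentration giving inhibition, using broth dilution over 64-0.06 μg/mL with a 5×10^5 CFU/mL inoculum.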

[3] = system: Streptococcus sp.; details: 18 hours at 35° C.
How it was run: as §1

[4] = system: Staphylococcus sp.
How it was run: as §1

[5] = broth dilution, inoculum 5×10^5 CFU/mL

MIC Escherichia coli (ATCC 25922) ([1]; Escherichia coli (ATCC 25922)): >64 µg/mL | MIC Escherichia coli (GC 4559) ([1]; Escherichia coli (GC 4559)): >64 µg/mL | MIC Escherichia coli (GC 4560) ([1]; Escherichia coli (GC 4560)): 16 µg/mL (≈ 10.9 µM) | MIC Enterococcus avium (GC 4558) ([2]; Enterococcus avium (GC 4558)): 4 µg/mL (≈ 2.71 µM) | MIC Enterococcus faecalis (ATCC 29212) ([2]; Enterococcus faecalis (ATCC 29212)): 8 µg/mL (≈ 5.43 µM) | MIC Enterococcus faecalis (GC 2242) ([2]; Enterococcus faecalis (GC 2242)): 8 µg/mL (≈ 5.43 µM) | MIC Enterococcus faecalis (GC 2691) ([2]; Enterococcus faecalis (GC 2691)): 8 µg/mL (≈ 5.43 µM) | MIC Enterococcus faecalis (GC 3059) ([2]; Enterococcus faecalis (GC 3059)): 8 µg/mL (≈ 5.43 µM) | MIC Enterococcus faecalis (GC 4552) ([2]; Enterococcus faecalis (GC 4552)): 8 µg/mL (≈ 5.43 µM) | MIC Enterococcus faecalis (GC 4553) ([2]; Enterococcus faecalis (GC 4553)): 8 µg/mL (≈ 5.43 µM) | MIC Enterococcus faecalis (GC 4554) ([2]; Enterococcus faecalis (GC 4554)): 8 µg/mL (≈ 5.43 µM) | MIC Enterococcus faecalis (GC 6189) ([2]; Enterococcus faecalis (GC 6189)): 8 µg/mL (≈ 5.43 µM) | MIC Enterococcus faecium (GC 2243) ([2]; Enterococcus faecium (GC 2243)): 4 µg/mL (≈ 2.71 µM) | MIC Enterococcus faecium (GC 4556) ([2]; Enterococcus faecium (GC 4556)): 8 µg/mL (≈ 5.43 µM) | MIC Enterococcus faecium (GC 4557) ([2]; Enterococcus faecium (GC 4557)): 4 µg/mL (≈ 2.71 µM) | MIC Enterococcus avium (GC 4558) [2, 5]: 4 µg/mL (≈ 2.71 µM) | MIC Enterococcus faecalis (ATCC 29212) [2, 5]: 8 µg/mL (≈ 5.43 µM) | MIC Enterococcus faecalis (GC 2242) [2, 5]: 8 µg/mL (≈ 5.43 µM) | MIC Enterococcus faecalis (GC 2691) [2, 5]: 8 µg/mL (≈ 5.43 µM) | MIC Enterococcus faecalis (GC 3059) [2, 5]: 8 µg/mL (≈ 5.43 µM) | MIC Enterococcus faecalis (GC 4552) [2, 5]: 8 µg/mL (≈ 5.43 µM) | MIC Enterococcus faecalis (GC 4553) [2, 5]: 8 µg/mL (≈ 5.43 µM) | MIC Enterococcus faecalis (GC 4554) [2, 5]: 8 µg/mL (≈ 5.43 µM) | MIC Enterococcus faecalis (GC 6189) [2, 5]: 8 µg/mL (≈ 5.43 µM) | MIC Enterococcus faecium (GC 2243) [2, 5]: 4 µg/mL (≈ 2.71 µM) | MIC Enterococcus faecium (GC 4556) [2, 5]: 8 µg/mL (≈ 5.43 µM) | MIC Enterococcus faecium (GC 4557) [2, 5]: 4 µg/mL (≈ 2.71 µM) | MIC Streptococcus agalactiae (GC 4564) ([3]; Streptococcus agalactiae (GC 4564)): 2 µg/mL (≈ 1.36 µM) | MIC Streptococcus pneumoniae (ATCC 6301) ([3]; Streptococcus pneumoniae (ATCC 6301)): 0.5 µg/mL (≈ 0.339 µM) | MIC Streptococcus pneumoniae (GC 1894) ([3]; Streptococcus pneumoniae (GC 1894)): <0.06 µg/mL | MIC Streptococcus pneumoniae (GC 4565) ([3]; Streptococcus pneumoniae (GC 4565)): 0.25 µg/mL (≈ 0.17 µM) | MIC Streptococcus pyogenes (GC 4563) ([3]; Streptococcus pyogenes (GC 4563)): 1 µg/mL (≈ 0.679 µM) | MIC Streptococcus agalactiae (GC 4564) [3, 5]: 2 µg/mL (≈ 1.36 µM) | MIC Streptococcus pneumoniae (ATCC 6301) [3, 5]: 0.5 µg/mL (≈ 0.339 µM) | MIC Streptococcus pneumoniae (GC 1894) [3, 5]: <0.06 µg/mL | MIC Streptococcus pneumoniae (GC 4565) [3, 5]: 0.25 µg/mL (≈ 0.17 µM) | MIC Streptococcus pyogenes (GC 4563) [3, 5]: 1 µg/mL (≈ 0.679 µM) | MIC Staphylococcus aureus (ATCC 29213) ([4]; strain ATCC 29213): 4 µg/mL (≈ 2.71 µM) | MIC Staphylococcus aureus (GC 1131) ([4]; strain GC 1131): 4 µg/mL (≈ 2.71 µM) | MIC Staphylococcus aureus (GC 3051) ([4]; strain GC 3051): 8 µg/mL (≈ 5.43 µM) | MIC Staphylococcus aureus (GC 3053) ([4]; strain GC 3053): 4 µg/mL (≈ 2.71 µM) | MIC Staphylococcus aureus (GC 4541) ([4]; strain GC 4541): 4 µg/mL (≈ 2.71 µM) | MIC Staphylococcus aureus (GC 4542) ([4]; strain GC 4542): 8 µg/mL (≈ 5.43 µM) | MIC Staphylococcus aureus-SMITH (GC 4543) ([4]; strain GC 4543): 4 µg/mL (≈ 2.71 µM) | MIC Staphylococcus aureus (GC 4544) ([4]; strain GC 4544): 8 µg/mL (≈ 5.43 µM) | MIC Staphylococcus aureus (GC 4545) ([4]; strain GC 4545): 4 µg/mL (≈ 2.71 µM) | MIC Coagulase Negative Staphylococcus (GC 4547) ([4]; strain GC 4547): 4 µg/mL (≈ 2.71 µM) | MIC Coagulase Negative Staphylococcus (GC 4548) ([4]; strain GC 4548): 4 µg/mL (≈ 2.71 µM) | MIC Coagulase Negative Staphylococcus (GC 4549) ([4]; strain GC 4549): 2 µg/mL (≈ 1.36 µM) | MIC Coagulase Negative Staphylococcus (GC 4551) ([4]; strain GC 4551): 4 µg/mL (≈ 2.71 µM) | MIC Coagulase Negative Staphylococcus (GC 6257) ([4]; strain GC 6257): 4 µg/mL (≈ 2.71 µM)
SMILES: CC(c1ccccc1)C1NC(=O)CNC(=O)C(CO)NC(=O)C(C(O)C2CNC(=N)N2C2OC(CO)C(O)C(O)C2O)NC(=O)C(C(O)C2CNC(=N)N2)NC(=O)C(Cc2ccc(OC3OC(CO)C(OC4OC(CO)C(O)C5OC6(CCCCCCCCCCCC6)OC45)C(O)C3O)cc2)NC1=O (stereo not drawn) [Example 210a, Cyclo[glycyl-β-methylphenylalanyl-O-[4-O-(2,3-O-cyclotridecylidenehexopyranosyl)hexopyranosyl]tyrosyl-3-(2-iminoimidazolidin-4-yl)seryl-3-(3-hexopyranosyl-2-iminoimidazolidin-4-yl)serylseryl]]
MIC Staphylococcus haemolyticus (GC 4546) ([4]; strain GC 4546): 8 µg/mL (≈ 5.43 µM)
